Assay results taken from ChEMBL document CHEMBL3774350, “The discovery of 2-substituted phenol quinazolines as potent RET kinase inhibitors with improved KDR selectivity” (Eur J Med Chem, 2016).

assay: Cytotoxicity in mouse BA/F3 cells after 48 hrs by Cell titre glo-based luminescence assay; conditions: BaF3, 48 h

Row | SMILES | IC50 [µM]
1 | COc1cc2ncnc(Nc3cccc(O)c3O)c2cc1OC | > 10
2 | COc1cc2ncnc(Nc3c(F)ccc(O)c3Cl)c2cc1OC | > 10
3 | COc1cc2ncnc(Nc3c(F)ccc(O)c3C)c2cc1OC | > 10
4 | COc1cc2ncnc(Nc3cccc(O)c3Cl)c2cc1OC | > 10
5 | COc1cc2ncnc(Nc3cccc(O)c3Br)c2cc1OC | > 10
6 | COc1cc2ncnc(Nc3cc(O)c(C)cc3F)c2cc1OC | > 1
7 | COc1cc2ncnc(Nc3cc(F)cc(O)c3C)c2cc1OC | > 10
8 | COc1cc2ncnc(Nc3cccc(O)c3)c2cc1OC | > 10
9 | COc1cc2ncnc(Nc3c(Cl)ccc(O)c3F)c2cc1OC | > 10
10 | COc1cc2ncnc(Nc3cccc(O)c3C)c2cc1OC | > 10
11 | COc1cc2ncnc(Nc3c(F)ccc(O)c3F)c2cc1OC | > 10

assay: Aqueous solubility of compound by LC-MS/MS analysis; format: physicochemical; conditions: not given

Row | SMILES | solubility [µM]
12 | COc1cc2ncnc(Nc3c(F)ccc(O)c3C)c2cc1OC | > 100
